Measurements reported in patent publication US11015223B2, “Methods for determining response to a hypomethylating agent” (THE REGENTS OF THE UNIVERSITY OF CALIFORNIA, priority 2013, dated 2021).

Tested on: MDS patients
Experiment: Response to treatment by IWG response criteria revised in 2006 (CR/PR/HI = responders)
Assay type: in vivo, human
Conditions: for Non-Responders (NR/SD/PD/Died/NE) (%) / Non-Responders (NR/SD/PD/Died/NE) N / Responders (CR/PR/HI) N / Responders (CR/PR/HI) (%): all patients on the treatment
Source text: A total of 213 MDS patients treated azacitidine or decitabine were included in this study. Samples were obtained from patients treated at the Dana-Farber Cancer Institute (n=42), the MD Anderson Cancer Center (n=104), and as part of the DACO-020 (ADOPT) clinical trial of decitabine (n=67). All samples were collected with patient consent under IRB-approved protocols in accordance with the Declaration of Helsinki. There were no significant differences in baseline patient characteristics by treatment site (Table 1).
Response to treatment was assessed using IWG response criteria revised in 2006. Patients with either a complete response (CR), partial response (PR), or hematologic improvement (HI) were considered as ‘responders’ (R, n=100, 47%). whereas patients described as having ‘no response’, ‘stable disease’, ‘progressive disease’, ‘death’ before response assessment, or ‘not evaluable’ were considered ‘non-responders’ (NR, […], 53%).
Categorical variables were compared using a Fisher exact test, while continuous variables were compared using a Wilcoxon rank-sum test. A Cochran-Mantel-Haenszel (CMH) test was used to test for differences in response rate by mutational status controlling for treatment. Unadjusted and adjusted logistic regression models were used to predict response to therapy. A stepwise algorithm for logistic regression was also utilized to determine a final model; candidate variables considered for inclusion were all mutations, treatment, IPSS classification, age, and sex. The Hosmer and Lemeshow goodness-of-fit test was used to assess model fit for logistic regression models. Overall survival was calculated from the time of treatment to the time of death from any cause or was censored at the date last known alive. Unadjusted and adjusted Cox regression models were constructed for overall survival. A stepwise regression algorithm for Cox regression models was used including the same candidate variables as in the logistic regression modeling. Classification trees were also created using the Rpart package in R version 2.11.1 to classify responders based on mutational status. Cross-validation was used for tree pruning. All p-values reported are two-sided and considered significant at the 0.05 level. No adjustments were made for multiple hypothesis testing.

Compound: Nc1ncn([C@H]2C[C@H](O)[C@@H](CO)O2)c(=O)n1 [decitabine, 5-aza-2′-deoxycytidine]
- Non-Responders (NR/SD/PD/Died/NE) (%): (53) %
- Non-Responders (NR/SD/PD/Died/NE) N: 76 N
- Responders (CR/PR/HI) N: 68 N
- Responders (CR/PR/HI) (%) (listed as Dec Alone): 47%
- Responders (CR/PR/HI) (%) (listed as Decitabine Alone): (47) %
- Response (%) (patients with ASXL1 mutation): 42%
- Response N (patients with ASXL1 mutation): 29 N
- Response (%) (patients with ATRX mutation): 25%
- Response N (patients with ATRX mutation): 2 N
- Response (%) (patients with BCOR mutation): 56%
- Response N (patients with BCOR mutation): 9 N
- Response (%) (patients with CBL mutation): 11%
- Response N (patients with CBL mutation): 1 N
- Response (%) (patients with DNMT3A mutation): 36%
- Response N (patients with DNMT3A mutation): 8 N
- Response (%) (patients with ETV6 mutation): 50%
- Response N (patients with ETV6 mutation): 3 N
- Response (%) (patients with EZH2 mutation): 44%
- Response N (patients with EZH2 mutation): 7 N
- Response (%) (patients with IDH1 mutation): 25%
- Response N (patients with IDH1 mutation): 2 N
- Response (%) (patients with IDH2 mutation): 17%
- Response N (patients with IDH2 mutation): 2 N
- Response (%) (patients with JAK2 mutation): 40%
- Response N (patients with JAK2 mutation): 2 N
- Response (%) (patients with KDM3A mutation): 25%
- Response N (patients with KDM3A mutation): 2 N
- Response (%) (patients with KDM6B mutation): 25%
- Response N (patients with KDM6B mutation): 2 N
- Response (%) (patients with KRAS mutation): 20%
- Response N (patients with KRAS mutation): 1 N
- Response (%) (patients with MAML1 mutation): 54%
- Response N (patients with MAML1 mutation): 7 N
- Response (%) (patients with NF1 mutation): 31%
- Response N (patients with NF1 mutation): 4 N
- Response (%) (patients with NOTCH1 mutation): 38%
- Response N (patients with NOTCH1 mutation): 5 N
- Response (%) (patients with NOTCH2 mutation): 58%
- Response N (patients with NOTCH2 mutation): 11 N
- Response (%) (patients with NPM1 mutation): 71%
- Response N (patients with NPM1 mutation): 5 N
- Response (%) (patients with NRAS mutation): 73%
- Response N (patients with NRAS mutation): 11 N
- Response (%) (patients with PHF6 mutation): 50%
- Response N (patients with PHF6 mutation): 5 N
- Response (%) (patients with PRPF8 mutation): 33%
- Response N (patients with PRPF8 mutation): 3 N
- Response (%) (patients with PTPN11 mutation): 17%
- Response N (patients with PTPN11 mutation): 1 N
- Response (%) (patients with RUNX1 mutation): 53%
- Response N (patients with RUNX1 mutation): 16 N
- Response (%) (patients with SCAF11 mutation): 25%
- Response N (patients with SCAF11 mutation): 2 N
- Response (%) (patients with SF3B1 mutation): 36%
- Response N (patients with SF3B1 mutation): 8 N
- Response (%) (patients with SRSF2 mutation): 56%
- Response N (patients with SRSF2 mutation): 14 N
- Response (%) (patients with TET2 mutation): 54%
- Response N (patients with TET2 mutation): 22 N
- Response (%) (patients with TLR1 mutation): 71%
- Response N (patients with TLR1 mutation): 5 N
- Response (%) (patients with TP53 mutation): 47%
- Response N (patients with TP53 mutation): 9 N
- Response (%) (patients with U2AF1 mutation): 50%
- Response N (patients with U2AF1 mutation): 9 N
- Response (%) (patients with ZRSR2 mutation): 44%
- Response N (patients with ZRSR2 mutation): 4 N

Compound: Decitabine+
- Non-Responders (NR/SD/PD/Died/NE) (%): (56) %
- Non-Responders (NR/SD/PD/Died/NE) N: 15 N
- Responders (CR/PR/HI) (%): (44) %
- Responders (CR/PR/HI) N: 12 N
- Responders (CR/PR/HI) (%) (listed as Dec Plus): 44%
- Response (%) (patients with ASXL1 mutation): 50%
- Response N (patients with ASXL1 mutation): 3 N
- Response (%) (patients with ATRX mutation): 100%
- Response N (patients with ATRX mutation): 1 N
- Response (%) (patients with BCOR mutation): 50%
- Response N (patients with BCOR mutation): 1 N
- Response (%) (patients with CBL mutation): 0 (0) %
- Response N (patients with CBL mutation): 0 (0) N
- Response (%) (patients with DNMT3A mutation): 67%
- Response N (patients with DNMT3A mutation): 4 N
- Response (%) (patients with ETV6 mutation): 0 (0) %
- Response N (patients with ETV6 mutation): 0 (0) N
- Response (%) (patients with EZH2 mutation): 0 (0) %
- Response N (patients with EZH2 mutation): 0 (0) N
- Response (%) (patients with IDH1 mutation): 0 (0) %
- Response N (patients with IDH1 mutation): 0 (0) N
- Response (%) (patients with IDH2 mutation): 0 (0) %
- Response N (patients with IDH2 mutation): 0 (0) N
- Response (%) (patients with JAK2 mutation): 0 (0) %
- Response N (patients with JAK2 mutation): 0 (0) N
- Response (%) (patients with KDM3A mutation): 0 (0) %
- Response N (patients with KDM3A mutation): 0 (0) N
- Response (%) (patients with KDM6B mutation): 100%
- Response N (patients with KDM6B mutation): 3 N
- Response (%) (patients with KRAS mutation): 0 (0) %
- Response N (patients with KRAS mutation): 0 (0) N
- Response (%) (patients with MAML1 mutation): 75%
- Response N (patients with MAML1 mutation): 3 N
- Response (%) (patients with NF1 mutation): 50%
- Response N (patients with NF1 mutation): 1 N
- Response (%) (patients with NOTCH1 mutation): 0 (0) %
- Response N (patients with NOTCH1 mutation): 0 (0) N
- Response (%) (patients with NOTCH2 mutation): 100%
- Response N (patients with NOTCH2 mutation): 5 N
- Response (%) (patients with NPM1 mutation): 100%
- Response N (patients with NPM1 mutation): 1 N
- Response (%) (patients with NRAS mutation): 50%
- Response N (patients with NRAS mutation): 1 N
- Response (%) (patients with PHF6 mutation): 0 (0) %
- Response N (patients with PHF6 mutation): 0 (0) N
- Response (%) (patients with PRPF8 mutation): 0 (0) %
- Response N (patients with PRPF8 mutation): 0 (0) N
- Response (%) (patients with PTPN11 mutation): 67%
- Response N (patients with PTPN11 mutation): 2 N
- Response (%) (patients with RUNX1 mutation): 75%
- Response N (patients with RUNX1 mutation): 3 N
- Response (%) (patients with SCAF11 mutation): 100%
- Response N (patients with SCAF11 mutation): 2 N
- Response (%) (patients with SF3B1 mutation): 50%
- Response N (patients with SF3B1 mutation): 2 N
- Response (%) (patients with SRSF2 mutation): 50%
- Response N (patients with SRSF2 mutation): 2 N
- Response (%) (patients with TET2 mutation): 80%
- Response N (patients with TET2 mutation): 4 N
- Response (%) (patients with TLR1 mutation): 67%
- Response N (patients with TLR1 mutation): 2 N
- Response (%) (patients with TP53 mutation): 42%
- Response N (patients with TP53 mutation): 5 N
- Response (%) (patients with U2AF1 mutation): 0 (0) %
- Response N (patients with U2AF1 mutation): 0 (0) N
- Response (%) (patients with ZRSR2 mutation): 0 (0) %
- Response N (patients with ZRSR2 mutation): 0 (0) N
